Measurements reported in patent US20220118057A1, “ALBUMIN NANOPARTICLES, THE MAKING METHOD, AND USES THEREOF” (NOVAGENESIS THERAPEUTIX (HK) LIMITED, priority 2019, published 2022).

Key:
BxPC-3 KRAS^G12V = test: BSA macropinocytosis (6-TAMRA-BSA uptake), flow cytometry and confocal microscopy; type: cell-based, human; conditions: 75 μM EIPA pretreatment 30 minutes
Protocol: (§1) 4 pancreatic cancer cell lines, MIA PaCa-2 control, MIA PaCa-2 KRAS KD, BxPC-3 control and BxPC-3 KRAS^G12V (10^5 cells per well, 1 mL) were inoculated in a 12-well microplate (Corning, N.Y., USA) and incubated at 37° C. and 5% CO2. When the cell density reached approximately 65%, the cell culture medium was replaced with a serum-free culture medium. After 12 hours, the culture medium was removed again and replaced with DMEM containing 1 mg/mL 6-TAMRA-BSA (500 μL/well). After incubated for another 4 hours, the cells were washed, digested and suspended in PBS (400 μL) and subjected to fluorescence analysis on a flow cytometer (BD, FACS Calibur, USA) using a 544 nm laser excitation and a 575 nm emission filter. Based on forward scattering and side scattering analysis, viable cells (10,000 cells/sample) were counted to detect the fluorescence intensity of the cells. For the EIPA (a known macropinocytosis inhibitor) inhibition experiment, cells were incubated with serum-free culture medium for 12 hours, pretreated with 75 μM of EIPA for 30 minutes, then replaced with fresh DMEM containing 1 mg/ml 6-TAMRA-BSA was added (500 μL/well).
(§2) Cells were cultured and treated as described above and grown on coverslips. After cell nuclei were stained with DAPI, the cells grown on the coverslips were observed under a multiphoton confocal Ti-E A1RMP inverted microscope (Nikon, Japan).

MIA PaCa-2 KRAS KD = test: as above; type: cell-based, human; conditions: 75 μM EIPA pretreatment 30 minutes
Protocol: as §1, §2

BxPC-3 control = test: as above; type: cell-based, human; conditions: 75 μM EIPA pretreatment 30 minutes
Protocol: as §1, §2

MIA PaCa-2 control [1] = test: as above; type: cell-based, human; conditions: 75 μM EIPA pretreatment 30 minutes
Protocol: as §1, §2

MIA PaCa-2 control [2] = test: In vitro cytotoxicity, MTS assay; type: cell-based, human; conditions: PLE 1 U/mL; slightly higher than β-lap
From the text: KRAS mutant cells MIA PaCa-2 (KRAS^G12C) and KRAS wild-type (KRAS^WT) BxPC-3 were selected for experiments. The expression levels of mutant KRAS in MIA PaCa-2 and BxPC-3 cells were manipulated. According to the supplier's protocol, MIA PaCa-2 cells with low expression level of KRAS were realized by lentiviral-mediated construction and transfection of pCDH-KRas-shRNA; control MIA PaCa-2 cells were realized by lentiviral-mediated transfection of pCDH vector; BxPC-3 cells with high expression level of KRAS were realized by lentiviral-mediated construction and transfection of pCDH-KRas-G12V, and control BxPC-3 cells were realized by lentiviral-mediated transfection of pCDH vector. All plasmids were purchased from […] Addgene (USA). The plasmid was transfected into the cells using transfection reagents (Promega, USA). 1 μg/mL puromycin was added to the culture medium for 48 hours to select stable transfected cell lines. Cells were represented as MIA PaCa-2 control, MIA PaCa-2 KRAS KD, BxPC-3 control and BxPC-3 KRAS^G12V.
Briefly, four pancreatic cancer cell lines were firstly inoculated into a 96-well culture plate (4000 cells/well), each well containing 0.1 mL of cell culture medium. […] The mean value of 6 wells per treatment was calculated and the treatment/control (T/C) value was calculated as a percentage of cell survival rate. […]

[3] = tested on: porcine liver esterase (PLE); test: Conversion of dC3 to β-lap at different BSA concentrations; type: in vitro ADME
Protocol: In order to study the effect of BSA on the conversion of dC3 to β-lap catalyzed by an esterase, dC3 was dissolved in DMSO (final DMSO concentration <0.5%), and then added dropwise to a solution of 1 M sodium salicylate, 1 U/mL porcine liver esterase (PLE) and different concentrations of BSA. The solution was shaken in a water bath at 60 rpm at 37° C. At predetermined time points (5, 10, 15, 30, 45, 60, 90, and 120 minutes), each 0.5 mL of release medium were taken out and replaced with an equal volume of fresh medium. The removed release medium was mixed with 0.5 mL of acetonitrile, and centrifuged for 10 minutes at 10,000 rpm to remove denatured proteins. The concentration of β-lap was analyzed by H PLC.
In order to study whether the effect of BSA on dC3-β-lap conversion catalyzed by an esterase will change in the presence of the polymer, the above-mentioned experiments were also conducted with the amount of PEG5K-β-PLA5K proportional to micelle preparation. Other conditions remained unchanged.

[4] = Solubility and apparent drug concentration; type: physicochemical
SW1990 (KRAS^G12D) = test: In vitro cytotoxicity, MTS assay; type: cell-based
Protocol: (§3) Briefly, four pancreatic cancer cell lines were firstly inoculated into a 96-well culture plate (4000 cells/well), each well containing 0.1 mL of cell culture medium. […] PLE (1 U/mL) was added concurrently with the dC3 preparation. The cells were further incubated for 12 hours, then the culture medium containing drugs was removed and new culture medium without drug was added. Relative survival curves of the four pancreatic cancer cell lines were obtained using the MTS assay (Promega, USA). The mean value of 6 wells per treatment was calculated and the treatment/control (T/C) value was calculated as a percentage of cell survival rate. All calculations were performed by GraphPad Prism 7 software (GraphPad Software, USA).
(§4) The relative survival profiles of pancreatic cancer cells SW1990 (KRAS^G12D) and SW1990/GEM (KRAS^G12D) were also measured using the same method. SW1990/GEM was cultured in a culture medium with 50 μM gemcitabine to maintain drug resistance.

SW1990/GEM (KRAS^G12D) = test: In vitro cytotoxicity, MTS assay; type: cell-based
Protocol: as §3, §4

[5] = Pharmacokinetics of dC3 and β-lap after intravenous injection; type: in vivo, Sprague Dawley rats; conditions: Sprague Dawley, rat, plasma, 50 mg/kg (β-lap equivalent dose), β-lap once converted from dC3, read-out: pharmacokinetic half-life
Protocol: The comparison of pharmacokinetics of different preparations in Sprague Dawley rats (n=3 per group) was performed. […] The blood samples were centrifuged at 4° C. and 1000 rpm for 3 minutes. The plasma concentrations of β-lap and dC3 were analyzed by LC-MS/MS (AB Sciex QTRAP 5500, USA).

## CCN(c1nc(N)c(C(=O)N=C(N)N)nc1Cl)C(C)C [EIPA, 5-[N-ethyl-N-isopropyl] amiloride]
BxPC-3 KRAS^G12V
  effect on 6-TAMRA-BSA uptake (macropinocytosis): can be inhibited
MIA PaCa-2 KRAS KD
  effect on BSA uptake: almost had no effect
BxPC-3 control
  effect on BSA uptake: almost had no effect
MIA PaCa-2 control [1]
  effect on 6-TAMRA-BSA uptake (macropinocytosis): can be inhibited

## CCC(=O)Oc1c2c(c3ccccc3c1OC(=O)CC)OC(C)(C)CC2 [dC3]
MIA PaCa-2 control [2]
  IC50 values, compared among dC3 treatments: comparable
[3]; BSA introduced at a low BSA-dC3 ratio, PLE
  dC3-β-lap conversion ratio: significantly reduced
[3]; BSA plus small amount of PEG-b-PLA proportional to micelle preparation
  dC3-β-lap conversion: accelerated
[4]
  solubility: < 0.1 µg/mL

## CC1(C)CCC2=C(O1)c1ccccc1C(=O)C2=O [β-lap, β-lapachone]
SW1990 (KRAS^G12D)
  inhibition of cells: effectively inhibit
SW1990/GEM (KRAS^G12D)
  inhibition of cells: effectively inhibit
[5]
  half-life: ~24 min
